# Test results published in patent US9956187B2 (priority 2014, dated 2018).
# Structures can show the parent of a compound that is named as a salt.
# Key:
# Assay in all cases: Primary radioligand binding screen
# [1] = target: Sigma 2 (Rattus norvegicus, UniProt Q5U3Y7)
# Protocol: (§1) Evidence for interaction was based on the inhibition of the reference ligand-binding signal. […] Briefly, 50 μL aliquots of radioactive ligand (5 nM) were added to wells of a 96-well plate, which contained 25 μL of the reference or test ligands. We employed transfected cell lines expressing mainly human (unless otherwise specified) recombinant receptors, monoamine transporters, or ion channels for crude membrane preparation. Detailed information about our membrane preparation is well known in the art and can be obtained from publicly available protocol online. Crude membrane fractions containing the receptors were resuspended in standard binding buffer and 50 μL aliquots added to each well. The reactions were incubated at room temperature for 1.5 hours to allow for radioligand binding equilibration. Bound radioactivity was harvested by rapid filtration through a 0.3% polyethyleneimine-treated, 96-well filter mats using a 96-well Filtermate harvester. The dried filters were treated with melted scintillant and a Microbeta scintillation counter was utilized to measure the radioactivity retained on the filter.
# [2] = target: T1, 5-HT1A (Homo sapiens, UniProt P08908)
# T1 construct: expressed in transfected cells
# Protocol: as §1
# [3] = target: T2, 5-HT1E (Homo sapiens, UniProt P28566)
# T2 construct: expressed in transfected cells
# T2 sequence (P28566 whole entry): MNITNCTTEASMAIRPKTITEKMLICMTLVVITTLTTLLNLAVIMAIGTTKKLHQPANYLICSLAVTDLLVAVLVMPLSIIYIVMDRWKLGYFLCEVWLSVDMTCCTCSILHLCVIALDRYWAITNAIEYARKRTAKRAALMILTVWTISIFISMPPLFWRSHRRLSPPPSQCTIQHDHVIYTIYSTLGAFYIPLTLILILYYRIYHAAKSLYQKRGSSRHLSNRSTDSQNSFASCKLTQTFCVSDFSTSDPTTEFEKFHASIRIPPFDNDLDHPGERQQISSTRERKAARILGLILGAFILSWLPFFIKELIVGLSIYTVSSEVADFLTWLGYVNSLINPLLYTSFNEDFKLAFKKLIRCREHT
# Protocol: as §1
# [4] = target: T3, 5-hT5A (Homo sapiens, UniProt P47898)
# T3 construct: expressed in transfected cells
# T3 sequence (P47898 whole entry): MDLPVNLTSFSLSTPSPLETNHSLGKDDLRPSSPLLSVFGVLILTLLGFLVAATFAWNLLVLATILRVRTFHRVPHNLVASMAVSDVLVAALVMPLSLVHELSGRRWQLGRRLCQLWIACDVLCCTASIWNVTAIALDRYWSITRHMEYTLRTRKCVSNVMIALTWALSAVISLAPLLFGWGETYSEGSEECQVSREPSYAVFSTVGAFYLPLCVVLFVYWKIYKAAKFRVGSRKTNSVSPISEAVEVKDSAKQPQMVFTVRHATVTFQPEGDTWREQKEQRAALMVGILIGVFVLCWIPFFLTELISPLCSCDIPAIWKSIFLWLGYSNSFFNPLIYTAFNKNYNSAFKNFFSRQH
# Protocol: as §1
# [5] = target: T4, D1 (Homo sapiens, UniProt P21728)
# T4 construct: expressed in transfected cells
# T4 sequence (P21728 whole entry): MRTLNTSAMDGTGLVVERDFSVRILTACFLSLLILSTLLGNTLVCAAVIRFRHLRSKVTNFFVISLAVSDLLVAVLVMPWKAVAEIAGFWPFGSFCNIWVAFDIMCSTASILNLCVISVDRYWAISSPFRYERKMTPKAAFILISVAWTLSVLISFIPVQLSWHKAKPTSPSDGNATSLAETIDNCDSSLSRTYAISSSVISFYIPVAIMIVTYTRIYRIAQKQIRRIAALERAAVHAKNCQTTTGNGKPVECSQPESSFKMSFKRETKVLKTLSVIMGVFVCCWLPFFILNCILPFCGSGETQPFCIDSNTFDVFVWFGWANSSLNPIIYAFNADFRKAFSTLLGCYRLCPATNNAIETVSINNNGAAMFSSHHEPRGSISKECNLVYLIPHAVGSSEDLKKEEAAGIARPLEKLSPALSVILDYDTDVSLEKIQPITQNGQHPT
# Protocol: as §1
# [6] = target: T5, M3 (Homo sapiens, UniProt P20309)
# T5 construct: expressed in transfected cells
# Protocol: as §1
# [7] = target: T6, DOR (Homo sapiens, UniProt P41143)
# T6 construct: expressed in transfected cells
# Protocol: as §1
# [8] = target: T7, NET (Homo sapiens, UniProt P23975)
# T7 construct: expressed in transfected cells
# T7 sequence (P23975 whole entry): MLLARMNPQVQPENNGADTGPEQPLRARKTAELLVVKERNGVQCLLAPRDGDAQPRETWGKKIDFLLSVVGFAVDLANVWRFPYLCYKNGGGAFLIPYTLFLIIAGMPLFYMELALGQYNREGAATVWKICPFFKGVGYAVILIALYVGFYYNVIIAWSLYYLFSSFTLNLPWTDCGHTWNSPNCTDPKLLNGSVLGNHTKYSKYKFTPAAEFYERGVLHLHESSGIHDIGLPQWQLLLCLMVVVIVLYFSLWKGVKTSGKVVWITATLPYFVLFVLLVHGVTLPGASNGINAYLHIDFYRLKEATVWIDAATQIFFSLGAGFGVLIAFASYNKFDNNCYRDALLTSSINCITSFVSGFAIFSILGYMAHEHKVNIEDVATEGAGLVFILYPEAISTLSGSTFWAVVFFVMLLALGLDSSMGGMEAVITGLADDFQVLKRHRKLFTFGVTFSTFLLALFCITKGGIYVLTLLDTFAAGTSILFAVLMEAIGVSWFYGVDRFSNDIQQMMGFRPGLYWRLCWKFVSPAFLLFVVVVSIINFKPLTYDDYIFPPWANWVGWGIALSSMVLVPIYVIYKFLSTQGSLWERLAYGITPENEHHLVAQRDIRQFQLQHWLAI
# Protocol: as §1
# [9] = target: T8, 5-HT2A (Homo sapiens, UniProt P28223)
# T8 construct: expressed in transfected cells
# Protocol: as §1
# [10] = target: T9, D3 (Homo sapiens, UniProt P35462)
# T9 construct: expressed in transfected cells
# T9 sequence (P35462 whole entry): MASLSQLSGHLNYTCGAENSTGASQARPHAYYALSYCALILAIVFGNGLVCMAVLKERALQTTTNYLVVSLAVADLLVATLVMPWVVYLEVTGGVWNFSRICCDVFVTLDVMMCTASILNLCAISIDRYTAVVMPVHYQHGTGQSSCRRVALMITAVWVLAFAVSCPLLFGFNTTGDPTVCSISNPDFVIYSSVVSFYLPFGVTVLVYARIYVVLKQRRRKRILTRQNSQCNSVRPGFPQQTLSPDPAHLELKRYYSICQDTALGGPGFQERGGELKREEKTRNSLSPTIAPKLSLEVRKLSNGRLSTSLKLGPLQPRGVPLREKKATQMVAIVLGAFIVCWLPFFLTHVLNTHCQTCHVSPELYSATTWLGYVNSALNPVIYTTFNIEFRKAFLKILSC
# Protocol: as §1
# [11] = target: T10, 5-HT2B (Homo sapiens, UniProt P41595)
# T10 construct: expressed in transfected cells
# T10 sequence (P41595 whole entry): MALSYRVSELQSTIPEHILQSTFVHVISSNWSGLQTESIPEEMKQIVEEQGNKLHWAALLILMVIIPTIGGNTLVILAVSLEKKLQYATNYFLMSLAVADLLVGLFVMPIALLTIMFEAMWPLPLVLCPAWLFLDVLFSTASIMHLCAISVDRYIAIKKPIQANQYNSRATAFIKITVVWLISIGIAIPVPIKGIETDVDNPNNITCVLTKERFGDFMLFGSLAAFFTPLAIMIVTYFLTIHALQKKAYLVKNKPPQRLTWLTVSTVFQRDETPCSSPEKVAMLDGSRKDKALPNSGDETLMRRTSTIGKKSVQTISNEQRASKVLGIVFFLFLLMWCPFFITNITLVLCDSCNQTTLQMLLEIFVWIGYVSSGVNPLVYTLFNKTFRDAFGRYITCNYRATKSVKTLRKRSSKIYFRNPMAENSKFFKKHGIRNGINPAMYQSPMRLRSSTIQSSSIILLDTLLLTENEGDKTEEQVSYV
# Protocol: as §1
# [12] = target: T11, D5 (Homo sapiens, UniProt P21918)
# T11 construct: expressed in transfected cells
# Protocol: as §1
# [13] = target: T12, H3 (Homo sapiens, UniProt Q9Y5N1)
# T12 construct: expressed in transfected cells
# T12 sequence (Q9Y5N1 whole entry): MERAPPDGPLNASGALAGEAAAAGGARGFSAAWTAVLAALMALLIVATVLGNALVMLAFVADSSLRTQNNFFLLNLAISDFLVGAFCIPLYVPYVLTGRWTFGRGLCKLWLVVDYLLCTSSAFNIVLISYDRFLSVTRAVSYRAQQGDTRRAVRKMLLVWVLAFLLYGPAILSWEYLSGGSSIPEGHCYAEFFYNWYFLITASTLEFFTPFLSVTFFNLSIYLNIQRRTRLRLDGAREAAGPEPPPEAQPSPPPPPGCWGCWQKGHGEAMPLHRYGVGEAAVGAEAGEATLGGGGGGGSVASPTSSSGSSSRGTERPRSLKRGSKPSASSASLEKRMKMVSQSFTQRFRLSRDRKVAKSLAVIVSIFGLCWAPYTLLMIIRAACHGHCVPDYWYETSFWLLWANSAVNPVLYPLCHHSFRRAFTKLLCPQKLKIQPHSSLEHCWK
# Protocol: as §1
# [14] = target: T13, 5-HT1B (Homo sapiens, UniProt P28222)
# T13 construct: expressed in transfected cells
# Protocol: as §1
# [15] = target: T14, M1 (Homo sapiens, UniProt P11229)
# T14 construct: expressed in transfected cells
# T14 sequence (P11229 whole entry): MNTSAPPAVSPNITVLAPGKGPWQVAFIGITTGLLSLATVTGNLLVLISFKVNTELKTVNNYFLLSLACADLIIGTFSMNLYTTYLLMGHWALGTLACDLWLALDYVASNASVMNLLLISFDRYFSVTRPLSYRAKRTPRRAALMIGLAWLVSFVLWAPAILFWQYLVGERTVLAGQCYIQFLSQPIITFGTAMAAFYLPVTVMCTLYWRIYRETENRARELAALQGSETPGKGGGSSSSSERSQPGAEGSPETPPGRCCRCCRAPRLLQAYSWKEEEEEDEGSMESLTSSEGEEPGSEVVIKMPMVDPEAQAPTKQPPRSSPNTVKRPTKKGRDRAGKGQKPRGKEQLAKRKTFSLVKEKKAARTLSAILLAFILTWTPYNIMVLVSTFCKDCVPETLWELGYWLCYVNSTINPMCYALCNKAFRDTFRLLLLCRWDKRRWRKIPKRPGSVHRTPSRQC
# Protocol: as §1
# [16] = target: T15, Alpha1D (Homo sapiens, UniProt P25100)
# T15 construct: expressed in transfected cells
# T15 sequence (P25100 whole entry): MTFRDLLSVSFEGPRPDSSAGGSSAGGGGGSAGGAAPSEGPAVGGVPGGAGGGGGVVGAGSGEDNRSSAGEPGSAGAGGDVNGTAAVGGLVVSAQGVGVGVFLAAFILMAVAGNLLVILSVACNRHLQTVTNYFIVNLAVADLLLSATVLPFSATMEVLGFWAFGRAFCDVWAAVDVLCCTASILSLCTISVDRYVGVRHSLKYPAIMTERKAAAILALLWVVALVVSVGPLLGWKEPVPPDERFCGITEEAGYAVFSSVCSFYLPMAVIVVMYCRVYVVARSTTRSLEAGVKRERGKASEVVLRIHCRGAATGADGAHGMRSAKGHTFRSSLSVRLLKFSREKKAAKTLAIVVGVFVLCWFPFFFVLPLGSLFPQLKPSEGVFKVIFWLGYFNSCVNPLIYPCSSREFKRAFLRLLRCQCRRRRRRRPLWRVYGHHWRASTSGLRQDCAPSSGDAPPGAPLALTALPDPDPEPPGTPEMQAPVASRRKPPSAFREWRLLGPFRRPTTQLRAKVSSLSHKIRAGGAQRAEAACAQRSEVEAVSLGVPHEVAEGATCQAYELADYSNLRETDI
# Protocol: as §1
# [17] = target: T16, 5-HT3 (Homo sapiens, UniProt P46098)
# T16 construct: expressed in transfected cells
# T16 sequence (P46098 24-478): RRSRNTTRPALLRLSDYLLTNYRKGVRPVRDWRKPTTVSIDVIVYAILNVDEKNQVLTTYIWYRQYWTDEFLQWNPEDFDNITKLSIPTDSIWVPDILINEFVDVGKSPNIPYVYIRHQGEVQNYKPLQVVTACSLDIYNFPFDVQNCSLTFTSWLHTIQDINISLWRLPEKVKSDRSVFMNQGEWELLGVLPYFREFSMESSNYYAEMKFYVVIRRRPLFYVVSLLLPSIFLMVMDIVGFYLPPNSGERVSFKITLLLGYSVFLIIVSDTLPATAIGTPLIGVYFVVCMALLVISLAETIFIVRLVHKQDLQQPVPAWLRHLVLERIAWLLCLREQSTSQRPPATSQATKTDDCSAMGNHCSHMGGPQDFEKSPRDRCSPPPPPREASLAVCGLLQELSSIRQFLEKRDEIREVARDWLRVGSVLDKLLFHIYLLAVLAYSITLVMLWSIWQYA
# Protocol: as §1
# [18] = target: T17, Beta2 (Homo sapiens, UniProt P07550)
# T17 construct: expressed in transfected cells
# Protocol: as §1
# [19] = target: T18, Beta1 (Homo sapiens, UniProt P08588)
# T18 construct: expressed in transfected cells
# Protocol: as §1
# [20] = target: T19, Alpha1B (Homo sapiens, UniProt P35368)
# T19 construct: expressed in transfected cells
# Protocol: as §1
# [21] = target: T20, DAT (Homo sapiens, UniProt Q01959)
# T20 construct: expressed in transfected cells
# Protocol: as §1
# Sequence of Sigma 2 (Q5U3Y7 whole entry): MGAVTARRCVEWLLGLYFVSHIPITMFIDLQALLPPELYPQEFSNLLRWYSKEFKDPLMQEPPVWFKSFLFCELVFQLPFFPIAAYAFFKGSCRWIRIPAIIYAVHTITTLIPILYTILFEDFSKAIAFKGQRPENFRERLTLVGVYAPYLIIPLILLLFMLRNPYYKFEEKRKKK
structure (smiles),measurement,setting,value
"C[C@@]12CCCCC[C@@H](Cc3ccc(O)cc31)[C@@H]2N [Dezocine, (−)-13β-amino-5,6,7,8,9,10,11,12-octahydro-5α-methyl-5,11-methanobenxocyclodecen-31-ol, hydrobromide]",inhibition at 10 µM,[1],6.3%
same,inhibition at 10 µM,[2],43.5%
same,inhibition at 10 µM,[3],-2.4%
same,inhibition at 10 µM,[4],3.4%
same,inhibition at 10 µM,[5],11.5%
same,inhibition at 10 µM,[6],-3.4%
same,inhibition at 10 µM,[7],58.5%
same,inhibition at 10 µM,[8],86.4%
same,inhibition at 10 µM,[9],-10%
same,inhibition at 10 µM,[10],-9.4%
same,inhibition at 10 µM,[11],-11.9%
same,inhibition at 10 µM,[12],-6.3%
same,inhibition at 10 µM,[13],-1.6%
same,inhibition at 10 µM,[14],-14.1%
same,inhibition at 10 µM,[15],-6.8%
same,inhibition at 10 µM,[16],8.9%
same,inhibition at 10 µM,[17],11.8%
same,inhibition at 10 µM,[18],-4.5%
same,inhibition at 10 µM,[19],10%
same,inhibition at 10 µM,[20],14.7%
same,inhibition at 10 µM,[21],15.8%
